Columns and labels:
db/db diabetic mice [1] = experiment: Type 2 diabetic renal damage, db/db mice, comparison with Losartan (Experimental Example 2); assay type: in vivo; details: oral, daily 12 weeks, Formula B 10 mg/kg; for glomerular filtration rate decrease / glomerular hypertrophy / proteinuria / tubular injury: Losartan 1.5 mg/kg (FIG. 4-6); for renal fibrosis: Losartan 1.5 mg/kg (FIG. 7, 8); for inflammation response: Losartan 1.5 mg/kg (FIG. 9, 10); for oxidative stress: Losartan 1.5 mg/kg (FIG. 11, 12); for lipid accumulation: Losartan 1.5 mg/kg (FIG. 13, 14)
Procedure: In order to compare the therapeutic efficacy between the adenosine derivative of the present invention and Losartan, which is used for alleviating the symptoms of diabetic kidney disease, the following animal experiments were performed.
The compound of Chemical Formula B and rosartan were oral administered at a dose of 10 mg/kg and 1.5 mg/kg to 8-week-old normal db/m mice in which diabetes were not induced and 8-week-old db/db diaetic mice in which diabetes were induced, respectively for 12 weeks daily. The kidneys of the solvent control group and the drug administration group were extracted to observe the histological changes of the glomeruli and the changes in the indicators for renal damage such as proteinuria, glomerular filtration rate reduction, tubular injury, glomerular hypertrophy, renal fibrosis, inflammatory response, oxidative stress and lipid accumulation were compared.
(§1) The morphological analysis of kidney including glomeruli was performed by PAS staining of kidney tissues followed by random selection of each 50, quantification by an image analyzer and statistics, and urinary albumin and LPO were analyzed by electrophoresis and ELISA (Enzyme-Linked ImmunoSorbent Assay) and mRNA expression was analyzed by real time PCR.
Glomerular filtration rate was calculated by measuring blood and urine creatinine using the Jaffe method and changes in kidney protein were measured by western blot, ELISA and immunohistochemistry.
In FIG. 4 to FIG. 14, db/m and db/db represent the mice to which the solvent (0.25% CMC) used in administering the compound of Chemical Formula B was administered, respectively, and db/m+LJ2698 and db/db+LJ2698 represent normal mice and diabetic mice to which the compound of Chemical Formula B is administered for 12 weeks, respectively. db/db+Losartan represents diabetic mice to which Losartan was administered for 12 weeks.

db/db diabetic mice [2] = experiment: Type 2 diabetic renal damage, db/db mice, dose-dependency (Experimental Example 1); assay type: in vivo; details: db/db mice, 1.5, 5 and 10 mg/kg
Procedure: The following animal experiments were performed to examine the inhibitory effect of the adenosine derivatives of the present invention on renal damage in the type 2 diabetes model.
After 12 weeks of the administration, kidneys of the solvent control group and the test substance administration group were extracted to observe the histological changes of the glomeruli and the levels of urinary albumin and LPO (lipid peroxide) or the amount of mRNA expression for nephrin, NGAL, TGF-β, collagen IV, fibronectin, MCP-1 and ICAM-1 was set as an index for renal damage and the protective effect for kidney was measured. Db/m mice in which diabetes were not induced, were added as a control group and only a solvent was administered to observe and measure the above items.
Of these indices, urinary albumin level means proteinuria, nephrin reduction means podocyte injury, NGAL increase means tubular injury, TGF-β increase means fibrosis, inflammatory cytokine (MCP-1, ICAM-1) increase means Inflammatory response and LPO values indicate oxidative stress.
as §1, with “of” for “of kidney including”, “PAS (Periodic Acid Schiff)” for “PAS”
In FIG. 2 and FIG. 3, db/m represents normal mice, db/db represents diabetic mice administered with only solvent (0.25% CMC) and db/db+LJ2698 (1.5 mg/kg), db/db+LJ2698 (5 mg/kg) and db/db+LJ2698 (10 mg/kg) represent diabetic mice in which the compound of Chemical Formula B is administered at 1.5, 5 and 10 mg/kg, respectively, for 12 weeks daily.

[3] = system: mice in which type 1 diabetes was induced (STZ); experiment: Type 1 diabetic renal damage, streptozotocin-induced diabetic mice (Experimental Example 3); assay type: in vivo; details: daily 12 weeks, Formula B 10 mg/kg
Procedure: The following animal experiments were performed to examine the inhibitory effect on the kidney injury by administering the adenosine derivative of the present invention to an animal model of type 1 diabetes.
After streptozotocin (STZ) was administered to normal mice for 5 days to induce type 1 diabetes, the mice have been classified into, a group in which 10 mg/kg compound of Chemical Formula B was administered daily, a group in which 1.5 mg/kg of LC158809, a type of ARB, was administered daily, and a group in which 10 mg/kg compound of Chemical Formula B and 1.5 mg/kg of LC158809 were co-administered daily, then all groups were given total of 12 weeks administration.
Kidney function and histologic changes of the kidney and the like were examined for normal mice to which streptozotocin was not administered, diabetic mice to which the only solvent was administered after 12 weeks of streptozotocin administration and diabetic mice to which test substance was administered after 12 weeks of streptozotocin administration.
FIG. 15 to FIG. 17 are graphs showing the results of measuring the levels of urinary albumin, nephrin and 8-isoprostan according to the above-mentioned experiment. Urine albumin, nephrin and 8-isoprostanone levels were measured as indicators of proteinuria, glomerular podocyte damage and oxidative stress, respectively.
In FIG. 15 to FIG. 19, Control and STZ represent normal mice and mice in which type 1 diabetes was induced, and STZ+ARB, STZ+LJ2698 and STZ+ARB+LJ2698 represent diabetic mice in which […] and the compound of Chemical Formula B+LC158809 (co-administration) were administered for 12 weeks, respectively.

[4] = system: mice-derived glomerular podocyte; experiment: Inflammation and fibrosis response in cultured glomerular podocytes (Experimental Example 4); assay type: cell-based; details: induced with high glucose, angiotensin II and free fatty acids (FIG. 20)
Procedure: (§2) In order to examine the anti-inflammatory and anti-fibrotic effects of the adenosine derivatives of the present invention on cultured cells, the following in vitro experiments were performed.

[5] = system: mice-derived tubular epithelial cells; experiment: Inflammation and fibrosis response in cultured tubular epithelial cells (Experimental Example 4); assay type: cell-based; details: induced with high glucose, angiotensin II and free fatty acids (FIG. 20)
Procedure: as §2

[6] = LC158809 1.5 mg/kg (FIG. 18, 19)

CCCCc1nc(Cl)c(CO)n1Cc1ccc(-c2ccccc2-c2nn[nH]n2)cc1 [Losartan, (2-butyl-4-chloro-1-{[2′-(1H-tetrazol-5-yl)biphenyl-4-yl]methyl}-1H-imidazol-5-yl}methanol, reference compound]
glomerular filtration rate decrease (db/db diabetic mice [1]): similar | glomerular hypertrophy (db/db diabetic mice [1]): similar | proteinuria (db/db diabetic mice [1]): similar | tubular injury (db/db diabetic mice [1]): similar | renal fibrosis (db/db diabetic mice [1]): inhibited to a similar level | inflammation response (db/db diabetic mice [1]): inhibited to a similar level | oxidative stress (db/db diabetic mice [1]): inhibited to a similar level | lipid accumulation (db/db diabetic mice [1]): inhibited to a similar level

O[C@@H]1[C@H](O)CS[C@H]1n1cnc2c(NCc3cccc(Cl)c3)nc(Cl)nc21 [compound of Chemical Formula B, (2R,3R,4S)-2-(2-chloro-6-(3-chlorobenzylamino)-9H-purin-9-yl)tetrahydrothiophene-3,4-diol]
glomerular filtration rate decrease (db/db diabetic mice [1]): inhibited | glomerular hypertrophy (db/db diabetic mice [1]): inhibited | proteinuria (db/db diabetic mice [1]): inhibited | tubular injury (db/db diabetic mice [1]): inhibited | renal fibrosis (db/db diabetic mice [1]): inhibited to a similar level | inflammation response (db/db diabetic mice [1]): inhibited to a similar level | oxidative stress (db/db diabetic mice [1]): inhibited to a similar level | lipid accumulation (db/db diabetic mice [1]): inhibited to a similar level | vasodilation (glomerular mesangium) (db/db diabetic mice [2]; 12 weeks (FIG. 1, 2)): significantly inhibited | urinary albumin levels (proteinuria) (db/db diabetic mice [2]; 12 weeks (FIG. 3)): inhibited dependently on dose | glomerular hypertrophy (db/db diabetic mice [2]; 12 weeks, PAS staining (FIG. 1, 2)): significantly inhibited | NGAL (tubular injury indicator) (db/db diabetic mice [2]; 12 weeks, mRNA (FIG. 3)): inhibited dependently on dose | TGF-β (fibrosis indicator) (db/db diabetic mice [2]; 12 weeks, mRNA (FIG. 3)): inhibited dependently on dose | collagen IV (db/db diabetic mice [2]; 12 weeks, mRNA (FIG. 3)): inhibited dependently on dose | nephrin (podocyte injury indicator) (db/db diabetic mice [2]; 12 weeks, mRNA (FIG. 3)): inhibited dependently on dose | urinary nephrin (glomerular podocyte damage) ([3]; LC158809 1.5 mg/kg (FIG. 16)): significantly reduced | fibrosis of the kidney [3, 6]: significantly reduced | inflammation of the kidney [3, 6]: significantly reduced | urinary albumin (proteinuria) ([3]; LC158809 1.5 mg/kg, alone or co-administered (FIG. 15)): significantly reduced | urinary 8-isoprostanone (oxidative stress) ([3]; LC158809 1.5 mg/kg, alone or co-administered (FIG. 17)): significantly reduced | anti-fibrosis effect (collagen IV) [4]: anti-fibrosis | anti-inflammatory effect (Nephrin, MCP-1) [4]: anti-inflammatory effect | antioxidant effect (NOX4) [4]: antioxidant | anti-fibrosis effect (collagen IV) [5]: anti-fibrosis | anti-inflammatory effect (Nephrin, MCP-1) [5]: anti-inflammatory effect | antioxidant effect (NOX4) [5]: antioxidant

Source: patent publication US11266644B2, “Pharmaceutical composition for preventing and treating diabetic nephropaphy including adenosine derivative” (FUTURE MEDICINE CO., LTD., priority 2017, dated 2022)
